According to US20260226069A1, “GCN2 AND PERK KINASE MODULATORS AND METHODS OF USE THEREOF” (Deciphera Pharmaceuticals, LLC, priority 2023, published 2026):

Legend:
PERK kinase = target: T1, PERK kinase (Homo sapiens, UniProt Q9NZJ5, A704S); experiment: Biochemical assay for PERK (coupled pyruvate kinase/lactate dehydrogenase assay); settings: 10 nM PERK, 1 mM ATP, reaction rate 2-3 h time frame, 30° C.
T1 construct: GST (with thrombin site LVPRGS); purchased Beryllium
Method: Biochemical Assay for PERK
Activity of PERK kinase was determined spectroscopically using a coupled pyruvate kinase/lactate dehydrogenase assay that continuously monitors the ATP hydrolysis-dependent oxidation of NADH (Science, 2000, 289, 1938-1942). Assays were conducted in 384-well plates (100 μL final volume) using 10 nM PERK (from Beryllium), 0.25 mg/mL Myelin Basic Protein substrate, 1.5 units pyruvate kinase, 2.1 units lactate dehydrogenase, 1 mM phosphoenol pyruvate, 0.28 mM NADH and 1 mM ATP in assay buffer (100 mM Tris, pH 7.5, 15 mM MgCl2, 0.5 mM DTT, 0.004% (w/v) BSA, and 0.004% Triton X-100). Inhibition of PERK was measured by adding serial diluted test compound (final assay concentration of 1% DMSO). A decrease in absorption at 340 nm was monitored continuously for 6 hours at 30° C. on a multi-mode microplate reader (BioTek). The reaction rate was calculated using the 2-3 h time frame. The reaction rate at each concentration of compound was converted to percent inhibition using controls (i.e., reaction with no test compound and reaction with a known inhibitor) and IC50 values were calculated using software routines in Prism (GraphPad software).

[1] = system: ATF4 in Thapsigargin stimulated CCRF-CEM cells; experiment: CCRF-CEM TG ATF4 ELISA, phenotypic assay for cellular inhibition of PERK preactivated by thapsigargin; assay type: cell-based; settings: Homo sapiens, 3 h, compound three hours then 1 μM thapsigargin for an additional hour
Method: CCRF-CEM TG ATF4 ELISA, a Phenotypic Assay for Cellular Inhibition of PERK Preactivated by Thapsigargin (TG)
CCRF-CEM leukemia cells (catalog #CCL-116) were obtained from the American Type Culture Collection (ATTC, Manassas, VA). Briefly, cells were grown in RPMI-1640 medium supplemented with 10% heat-inactivated fetal bovine serum (Invitrogen, Carlsbad, CA) and 1% Penicillin/Streptomycin/L-Glutamine at 37° C., 5% CO2, and 95% humidity. Cells were expanded until reaching one million cells per mL at which time they were subcultured or harvested for assay use. One million five hundred thousand cells per well in 1 mL complete growth medium were dispensed into 12-well plates and incubated overnight. A serial dilution of test compound was added and cells were incubated at 37° C., 5% CO2, and 95% for three hours, then 1 μM thapsigargin was added and cells were incubated for an additional hour at 37° C., 5% CO2, and 95%. Cells were lysed then ATF4 levels were measured using an ELISA assay (Proteintech, Rosemont, IL). Absorbance was measured at 450 nm and 544 nM using a Synergy2 or equivalent reader (Biotek, Winooski VT). Data was analyzed using PRISM software (Graphpad, San Diego, CA) to calculate IC50 values.

[2] = system: ASNase treated CCRF-CEM cells; experiment: CCRF-CEM ASNase cell proliferation assay, phenotypic assay for cellular inhibition of GCN2; assay type: cell-based; settings: Homo sapiens, 1 mU/mL ASNase, 72 h, resazurin
Method: CCRF-CEM ASNase Cell Proliferation Assay, a Phenotypic Assay for Cellular Inhibition of GCN2.
CCRF-CEM leukemia cells (catalog #CCL-116) were obtained from the American Type Culture Collect (ATTC, Manassas, VA). Cells were grown in RPMI-1640 medium supplemented with 10% heat-inactivated fetal bovine serum (Invitrogen, Carlsbad, CA) and 1% Penicillin/Streptomycin/L-Glutamine at 37° C., 5% CO2, and 95% humidity. Cells were expanded until reaching one million cells per mL at which time they are subcultured or harvested for assay use. Ten thousand cells per well in 200 μL RPMI-1640 supplemented with 10% heat-inactivated fetal bovine serum and 1% Penicillin/Streptomycin were dispensed into a 96-well black clear bottom plate. A serial dilution of test compound and 1 mU/mL ASNase was added in triplicate and plates were incubated for 72 h at 37° C., 5% CO2, and 95% humidity. At the end of the incubation, 40 μL of a […] solution of resazurin (Sigma, St. Louis, MO) in PBS was added to each well of the plate and plates were incubated for an additional 6 h at 37° C., 5% CO2, and 95% humidity. Plates were read on a Synergy2 or equivalent reader (Biotek, Winooski VT) using an excitation of 540 nm and an emission of 600 nm. Data was analyzed using GraphPad Prism software (GraphPad, San Diego, CA) to calculate IC50 values.

[3] = system: ATF4 in H929 Multiple Myeloma cells; experiment: H929 ATF4 ELISA assay; assay type: cell-based; settings: four hours, fold stimulation of cellular ATF4 relative to vehicle treated control
Method: H929 multiple myeloma cells (catalog #CRL-9068) were obtained from the American Type Culture Collection (ATTC, Manassas, VA). Briefly, cells were grown in RPMI-1640 medium supplemented with 20% heat-inactivated fetal bovine serum (catalog #A3840002, ThermoFisher Scientific, Waltham, MA), 1% Penicillin/Streptomycin/L-Glutamine (catalog #10378016, ThermoFisher Scientific, Waltham, MA), and 0.05 mM 2-mercaptoethanol (catalog #21985-023, ThermoFisher Scientific, Waltham, MA) at 37° C., 5% CO2, and 95% humidity. Cells were expanded until reaching one million five hundred thousand cells per mL at which time they were sub-cultured or harvested for assay use. One million five hundred thousand cells per well in 1 mL complete growth medium were dispensed into 12-well plates and incubated overnight. A serial dilution of test compound was added, and cells were incubated at 37° C., 5% CO2, and 95% for four hours. Cells were lysed then ATF4 levels were measured using an ELISA assay (Proteintech, Rosemont, IL). Absorbance is measured at 450 nm and 544 nM using a Synergy2 or equivalent reader (Biotek, Winooski VT). Data were analyzed using PRISM software (Graphpad, San Diego, CA) to calculate fold stimulation of cellular ATF4 relative to vehicle treated control.

GCN2 kinase = target: T2, GCN2 kinase (Homo sapiens, UniProt Q9P2K8); experiment: Biochemical assay for GCN2 (TR-FRET kinase activity assay); settings: 2 nM GCN2, 1 mM ATP, 3-hour incubation
T2 construct: G556E with a; purchased Carna Biosciences
Method: Biochemical assay for GCN2
Activity of GCN2 kinase was determined using a TR-FRET kinase activity assay (e.g., Analytical Biochemistry, 2006, 356, 108-116). Assays were conducted in 384-well plates (13 μL assay volume) using 2 nM GCN2 (Carna Biosciences), 130 nM GFP-EIf2α (Invitrogen), 0.2 mg/mL E. coli tRNA (sigma) and 1 mM ATP in kinase buffer (Invitrogen). Inhibition of GCN2 was measured by adding serial diluted test compound (final assay concentration of 0.5% DMSO) followed by a 3-hour incubation. Tb-peIF2α (pSer52) antibody (Invitrogen) (2 nM final assay concentration) in kinase buffer containing EDTA (final assay concentration of 20 mM) was added. After a 60 min incubation at room temperature, TR-FRET was monitored using an excitation wavelength of 340 nm and emission wavelengths of 490 nm and 520 nm. The emission ratio (520/490) at each compound concentration of was converted to percent inhibition using controls (i.e., reaction with no test compound and reaction with a known inhibitor) and IC50 values were calculated by fitting a four-parameter sigmoidal curve to the data using Prism (GraphPad software).

T1 sequence (Q9NZJ5 with tags, fused parts or gaps A704S): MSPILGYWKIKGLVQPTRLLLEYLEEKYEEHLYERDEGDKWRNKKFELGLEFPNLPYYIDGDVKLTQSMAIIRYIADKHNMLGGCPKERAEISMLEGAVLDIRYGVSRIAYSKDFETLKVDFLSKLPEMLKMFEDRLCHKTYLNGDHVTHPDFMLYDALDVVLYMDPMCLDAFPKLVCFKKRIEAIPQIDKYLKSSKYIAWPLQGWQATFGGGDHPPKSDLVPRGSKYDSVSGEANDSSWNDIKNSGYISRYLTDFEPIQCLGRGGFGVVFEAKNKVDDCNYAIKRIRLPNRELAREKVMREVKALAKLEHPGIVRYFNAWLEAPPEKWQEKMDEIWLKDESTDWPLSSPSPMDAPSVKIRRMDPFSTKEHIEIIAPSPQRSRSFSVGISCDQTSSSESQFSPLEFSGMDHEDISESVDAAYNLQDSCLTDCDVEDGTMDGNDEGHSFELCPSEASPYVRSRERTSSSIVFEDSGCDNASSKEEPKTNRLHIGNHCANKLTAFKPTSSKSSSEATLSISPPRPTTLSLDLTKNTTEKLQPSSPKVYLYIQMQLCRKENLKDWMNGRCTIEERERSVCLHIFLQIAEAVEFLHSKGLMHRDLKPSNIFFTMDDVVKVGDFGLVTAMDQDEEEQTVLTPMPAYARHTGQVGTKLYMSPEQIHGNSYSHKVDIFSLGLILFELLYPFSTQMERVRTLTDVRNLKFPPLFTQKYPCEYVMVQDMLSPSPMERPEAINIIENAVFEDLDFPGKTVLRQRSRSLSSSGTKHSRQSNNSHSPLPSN

Row | Compound | IC50 (PERK kinase) [nM] | IC50 [1] [nM] | IC50 [2] [nM] | H929 NS ATF4 ELISA [3] | IC50 (GCN2 kinase) [nM]
1 | CC(=O)OCc1cc(Cl)cc(S(=O)(=O)Nc2cccc(-c3nc(C)n4ccnc(N)c34)c2F)c1Cl [Example 1, 3-(N-(3-(8-amino-3-methylimidazo[1,5-a]pyrazin-1-yl)-2-fluorophenyl)sulfamoyl)-2,5-dichlorobenzyl acetate] | 100 to 500 | 500 to 1000 | 500 to 1000 | ++++ (an ATF4 stim greater than 20-fold) | 1000 to 10000
2 | Cc1nc(-c2cccc(NS(=O)(=O)c3cc(Cl)cc(CO)c3Cl)c2F)c2c(N)nccn12 [Example 2, N-(3-(8-amino-3-methylimidazo[1,5-a]pyrazin-1-yl)-2-fluorophenyl)-2,5-dichloro-3-(hydroxymethyl)benzenesulfonamide] | ≤ 100 | 100 to 500 | 100 to 500 | +++ (an ATF4 stim greater than 10-fold and less than or equal to 20-fold) | 100 to 500
3 | Nc1ncnn2ccc(-c3cccc(NS(=O)(=O)c4cc(Cl)cc(CO)c4Cl)c3F)c12 [Example 3] | ≤ 100 | 100 to 500 | 100 to 500 | ++ (an ATF4 stim greater than 5-fold and less than or equal to 10-fold) | 100 to 500
4 | Cc1nc(-c2cc(NS(=O)(=O)c3cc(Cl)cc(CO)c3Cl)cc(F)c2F)c2c(N)nccn12 [Example 4] | ≤ 100 | 1000 to 10000 | 1000 to 10000 | + (an ATF4 stim less than or equal to 5-fold) | ≤ 100
5 | CC(C)(C)c1nc(-c2cccc(NS(=O)(=O)c3cc(Cl)cc(CO)c3Cl)c2F)c2c(N)nccn12 [Example 9] | ≤ 100 | 100 to 500 | 100 to 500 | +++ (an ATF4 stim greater than 10-fold and less than or equal to 20-fold) | 100 to 500
6 | Nc1nccn2c(-c3ccccc3)nc(-c3cccc(NS(=O)(=O)c4cc(Cl)cc(CO)c4Cl)c3F)c12 [Example 12] | ≤ 100 | 500 to 1000 | 100 to 500 | ++++ (an ATF4 stim greater than 20-fold) | ≤ 100
7 | Cc1cc(-c2cccc(NS(=O)(=O)c3cc(Cl)cc(CO)c3Cl)c2F)c2c(N)ncnn12 [Example 13] | ≤ 100 | 100 to 500 | 100 to 500 | +++ (an ATF4 stim greater than 10-fold and less than or equal to 20-fold) | 100 to 500
8 | Nc1nccn2c(C3CC3)nc(-c3cccc(NS(=O)(=O)c4cc(Cl)cc(CO)c4Cl)c3F)c12 [Example 14] | ≤ 100 | 100 to 500 | ≤ 100 | ++ (an ATF4 stim greater than 5-fold and less than or equal to 10-fold) | ≤ 100
9 | CC(C)c1nc(-c2cccc(NS(=O)(=O)c3cc(Cl)cc(CO)c3Cl)c2F)c2c(N)nccn12 [Example 16] | ≤ 100 | 100 to 500 | ≤ 100 | +++ (an ATF4 stim greater than 10-fold and less than or equal to 20-fold) | ≤ 100
10 | Nc1nccn2c(C3CCC3)nc(-c3cccc(NS(=O)(=O)c4cc(Cl)cc(CO)c4Cl)c3F)c12 [Example 17] | ≤ 100 | 100 to 500 | 100 to 500 | +++ (an ATF4 stim greater than 10-fold and less than or equal to 20-fold) | ≤ 100
11 | NC(=O)c1cc(-c2cccc(NS(=O)(=O)c3cc(Cl)cc(CO)c3Cl)c2F)c2c(N)ncnn12 [Example 18] | ≤ 100 | 500 to 1000 | 100 to 500 | ++ (an ATF4 stim greater than 5-fold and less than or equal to 10-fold) | ≤ 100
12 | Nc1nccn2c(-c3cn[nH]c3)nc(-c3cccc(NS(=O)(=O)c4cc(Cl)cc(CO)c4Cl)c3F)c12 [Example 19] | ≤ 100 | 500 to 1000 | 100 to 500 | ++ (an ATF4 stim greater than 5-fold and less than or equal to 10-fold) | ≤ 100
13 | Cn1cc(-c2nc(-c3cccc(NS(=O)(=O)c4cc(Cl)cc(CO)c4Cl)c3F)c3c(N)nccn23)cn1 [Example 20] | ≤ 100 | ≤ 100 | ≤ 100 | ++ (an ATF4 stim greater than 5-fold and less than or equal to 10-fold) | ≤ 100
14 | CSc1nc(-c2cccc(NS(=O)(=O)c3cc(Cl)cc(CO)c3Cl)c2F)c2c(N)nccn12 [Example 21] | ≤ 100 | 100 to 500 | 100 to 500 | +++ (an ATF4 stim greater than 10-fold and less than or equal to 20-fold) | ≤ 100
15 | CNC(=O)c1nc(-c2cccc(NS(=O)(=O)c3cc(Cl)cc(CO)c3Cl)c2F)c2c(N)nccn12 [Example 22] | ≤ 100 | 100 to 500 | 100 to 500 | ++++ (an ATF4 stim greater than 20-fold) | ≤ 100
16 | CNc1nc(-c2cccc(NS(=O)(=O)c3cc(Cl)cc(CO)c3Cl)c2F)c2c(N)nccn12 [Example 26] | ≤ 100 | 100 to 500 | 100 to 500 | ++ (an ATF4 stim greater than 5-fold and less than or equal to 10-fold) | ≤ 100
17 | Cn1cc(-c2cccc(NS(=O)(=O)c3cc(F)c(Br)cc3F)c2F)c2c(N)ncnc21 [Example 38] | ≤ 100 | 100 to 500 | 1000 to 10000 | + (an ATF4 stim less than or equal to 5-fold) | 1000 to 10000
